Test results taken from US10570184B2, “GLP-1/glucagon receptor co-agonists for medical use” (Novo Nordisk A/S, priority 2014, dated 2020).
Residues, ends and D or L forms follow the SMILES beside them.

Key:
[1] = molecular target: T1, human GLP-1 receptor (Homo sapiens, UniProt P43220); assay: Assay (I)(a) GLP-1 receptor activation, CRE luciferase reporter gene assay in BHK cells; assay type: cell-based; settings: without presence of serum albumin; read-out: GLP-1R EC50 (pM) [Assay (I)(a)]
T1 construct: expressed in transfected cells; host or cells: membranes of BHK cells (parent BHKTS13), clone FCW467-12A
T1 sequence (P43220 24-463): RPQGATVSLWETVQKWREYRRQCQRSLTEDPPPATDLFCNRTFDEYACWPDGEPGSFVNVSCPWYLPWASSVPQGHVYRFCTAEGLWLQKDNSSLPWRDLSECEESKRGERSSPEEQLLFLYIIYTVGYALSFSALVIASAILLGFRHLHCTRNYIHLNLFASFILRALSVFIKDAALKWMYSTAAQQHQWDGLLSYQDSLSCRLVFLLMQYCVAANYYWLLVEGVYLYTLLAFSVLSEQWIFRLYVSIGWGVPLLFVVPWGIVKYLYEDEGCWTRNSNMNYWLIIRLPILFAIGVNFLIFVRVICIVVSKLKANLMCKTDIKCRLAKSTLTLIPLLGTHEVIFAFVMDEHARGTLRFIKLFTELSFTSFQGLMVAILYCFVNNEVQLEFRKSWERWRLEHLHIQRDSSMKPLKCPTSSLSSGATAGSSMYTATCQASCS
How it was run: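 Stable BHK clone expressing human GLP-1 receptor with CRE-driven firefly luciferase, 5×10EE3 cells/well in medium with 2% ovalbumin and 0.2% Pluronic F-68. Compounds at 1×10EE-13 to 1×10EE-6 M final, 3 h at 37° C.; luminescence read, EC50 (pM) from four-parameter fit.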

[2] = molecular target: T2, human glucagon receptor (Homo sapiens, UniProt P47871); assay: Assay (I)(b) glucagon receptor activation, CRE luciferase reporter gene assay in BHK cells; assay type: cell-based; settings: without presence of serum albumin; read-out: GlucagonR EC50 (pM), [Assay (I)(b)]
T2 construct: expressed in transfected cells; host or cells: membranes of BHK cells, clone BHK hGCGR A3*25
T2 sequence (P47871 26-477): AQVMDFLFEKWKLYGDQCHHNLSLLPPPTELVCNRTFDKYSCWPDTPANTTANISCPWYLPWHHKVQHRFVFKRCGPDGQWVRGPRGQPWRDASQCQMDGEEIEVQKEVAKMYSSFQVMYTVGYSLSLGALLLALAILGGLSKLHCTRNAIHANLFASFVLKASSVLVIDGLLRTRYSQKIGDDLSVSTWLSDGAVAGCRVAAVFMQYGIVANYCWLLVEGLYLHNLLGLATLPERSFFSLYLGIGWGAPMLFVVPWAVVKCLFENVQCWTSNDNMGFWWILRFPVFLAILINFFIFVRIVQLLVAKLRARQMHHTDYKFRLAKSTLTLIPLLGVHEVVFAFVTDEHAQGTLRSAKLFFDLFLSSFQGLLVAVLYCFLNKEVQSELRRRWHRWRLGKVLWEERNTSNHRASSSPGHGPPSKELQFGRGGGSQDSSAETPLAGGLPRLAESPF
Protocol: The purpose of this example was to test the activity or potency, of the glucagon derivatives of the invention, in vitro. The in vitro potency is the measure of human GLP-1 receptor (GLP-1R) or glucagon receptor (glucagonR) activation, respectively, in a whole cell assay. In vitro potency was determined by measuring the response of human GLP-1 or glucagon receptor, respectively, in a reporter gene assay. The assay was performed in a stably transfected BHK cell line that expresses either the human GLP-1 receptor or the human glucagon receptor and contains the DNA for the cAMP response element (CRE) coupled to a promoter and the gene for firefly luciferase (CRE luciferase). […] When assay incubation was completed, the luciferase substrate (luciferin) was added and the enzyme converted luciferin to oxyluciferin and produces bioluminescence. The luminescence was measured as the readout for the assay. The cells used in this assay (clone pLJ6′-4-25) were BHK cells with BHK570 as a parent cell line expressing the CRE luciferase gene (clone BHK/KZ10-20-48) and were established by further transfection with the human glucagon receptor (clone pLJ6′ in pHZ-1 vector). The cells were cultured at 5% CO2 in DMEM medium with 10% FBS, 1×GlutaMAX, 1 mg/ml G418, 240 nM MTX (methotrexate) and 1% pen/strep (penicillin/streptomycin). They were aliquoted and stored in liquid nitrogen. Before each assay, an aliquot was taken up and washed three times in PBS before being suspended at the desired concentration in assay medium. For 96-well plates the suspension was made to give a final concentration of 5×10EE3 cells/well. The following chemicals were used in the assay: Pluronic F-68 (10%) (Gibco 2404), ovalbumin (Sigma A5503), DMEM w/o phenol red (Gibco 11880-028), 1 M Hepes (Gibco 15630), Glutamax 100× (Gibco 35050) and steadylite plus (PerkinElmer 6016757). Assay Medium consisted of DMEM w/o phenol red, 10 mM Hepes, 1× GlutaMAX, 2% Ovalbumin and 0.2% Pluronic F-68. Cell stocks were thawed in a 37° C. water bath. Cells were washed three times in PBS. The cells were counted and adjusted to 5×10EE3 cells/50 μl (1×10EE5 cells/ml) in Assay Medium. A 50 μl aliquot of cells was transferred to each well in the assay plate. Stocks of the test compounds and reference compounds were diluted to a concentration of […] in Assay Medium. Compounds were diluted 10-fold to give the following concentrations: 2×10EE-6 M, 2×10EE-7 M, 2×10EE-8 M; 2×10EE-9 M, 2×10EE-10 M, 2×10EE-11 M, 2×10EE-12 M and 2×10EE-13 M. For each compound a blank assay medium control was also included. A 50 μl aliquot of compound or blank was transferred from the dilution plate to the assay plate. Compounds were tested at the following final concentrations: 1×10EE-6 M, 1×10EE-7 M, 1×10EE-8 M; 1×10EE-9 M, 1×10EE-10 M, 1×10EE-11 M and 1×10EE-12 M and 1×10EE-13 M. The assay plate was incubated for 3 h in a 5% CO2 incubator at 37° C. The assay plate was removed from the incubator and allowed to stand at room temperature for 15 min. A 100 μl aliquot of steadylite plus reagent was added to each well of the assay plate (reagent is light sensitive). Each assay plate was covered with aluminum foil to protect it from light and shaken for 30 min at room temperature. Each assay plate was read in a Perkin Elmer TopCount NXT instrument. The data from the TopCount instrument was transferred to GraphPad Prism software. The software performed a non-linear regression (log(agonist) vs response-Variable slope (four parameter)). EC50 values were calculated by the software and reported in pM.

EC50 [1]: 4 pM | EC50 [2]: 7 pM
Structure (SMILES): CC[C@H](C)[C@H](NC(=O)[C@H](CC(C)C)NC(=O)[C@H](Cc1c[nH]c2ccccc12)NC(=O)[C@H](CCC(N)=O)NC(=O)[C@@H](NC(=O)[C@H](Cc1ccccc1)NC(=O)[C@H](CC(=O)O)NC(=O)[C@H](CCCNC(=N)N)NC(=O)[C@H](C)NC(=O)[C@H](CCCNC(=N)N)NC(=O)[C@H](CCCNC(=N)N)NC(=O)[C@H](C)NC(=O)[C@H](CC(=O)O)NC(=O)[C@H](CC(C)C)NC(=O)[C@H](Cc1ccc(O)cc1)NC(=O)[C@H](CCCCN)NC(=O)[C@H](CO)NC(=O)[C@H](CC(C)C)NC(=O)[C@H](CC(=O)O)NC(=O)[C@H](CO)NC(=O)[C@@H](NC(=O)[C@H](Cc1ccccc1)NC(=O)[C@@H](NC(=O)CNC(=O)[C@H](CCC(N)=O)NC(=O)C(C)(C)NC(=O)[C@@H](N)Cc1c[nH]cn1)[C@@H](C)O)[C@@H](C)O)C(C)C)C(=O)N[C@@H](CCCCNC(=O)CC[C@H](NC(=O)CC[C@H](NC(=O)CC[C@H](NC(=O)CCCCCCCCCCCCCCCCC(=O)O)C(=O)O)C(=O)O)C(=O)O)C(=O)N[C@H](C(N)=O)[C@@H](C)O [Chem. 15, N^ε28-[(4S)-4-carboxy-4-[[(4S)-4-carboxy-4-[[(4S)-4-carboxy-4-(17-carboxyheptadecanoylamino)butanoyl]amino]butanoyl]amino]butanoyl]-[Aib2,Leu10,Ala16,Arg20,Ile27,Lys28]-Glucagon amide] (HELM PEPTIDE1{H.[Aib].Q.G.T.F.T.S.D.L.S.K.Y.L.D.A.R.R.A.R.D.F.V.Q.W.L.I.K.T.[am]}|PEPTIDE2{[O=C(O)CCCCCCCCCCCCCCCCC(=O)[*:2]].[gGlu].[gGlu].[gGlu]}$PEPTIDE1,PEPTIDE2,28:R3-4:R2$$$V2.0)
